Measured values published in patent US20070082880A1 (priority 2005, published 2007).

What follows are compounds tested against T1, human PKCθ full length enzyme (Homo sapiens, UniProt Q04759) (assay: PKCθ IMAP Assay). Conditions: average value when one or more samples were tested; ATP 6 uM, PKCθ 1 nM.
T1 construct: human PKCθ full length enzyme (Panvera Catalog No. P2996); purchased Panvera P2996
Format: biochemical
How it was run: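 Full-length human PKCθ (1 nM final) with 6 uM ATP and 100 nM 5FAM-labelled peptide, 5% DMSO, 3.0 mM DTT in reaction buffer. 25 min at room temperature; IMAP bead binding 20 min, fluorescence polarization read. Compounds 2:1 serially diluted; no-ATP and no-enzyme wells as controls.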

T1 sequence (Q04759 whole entry): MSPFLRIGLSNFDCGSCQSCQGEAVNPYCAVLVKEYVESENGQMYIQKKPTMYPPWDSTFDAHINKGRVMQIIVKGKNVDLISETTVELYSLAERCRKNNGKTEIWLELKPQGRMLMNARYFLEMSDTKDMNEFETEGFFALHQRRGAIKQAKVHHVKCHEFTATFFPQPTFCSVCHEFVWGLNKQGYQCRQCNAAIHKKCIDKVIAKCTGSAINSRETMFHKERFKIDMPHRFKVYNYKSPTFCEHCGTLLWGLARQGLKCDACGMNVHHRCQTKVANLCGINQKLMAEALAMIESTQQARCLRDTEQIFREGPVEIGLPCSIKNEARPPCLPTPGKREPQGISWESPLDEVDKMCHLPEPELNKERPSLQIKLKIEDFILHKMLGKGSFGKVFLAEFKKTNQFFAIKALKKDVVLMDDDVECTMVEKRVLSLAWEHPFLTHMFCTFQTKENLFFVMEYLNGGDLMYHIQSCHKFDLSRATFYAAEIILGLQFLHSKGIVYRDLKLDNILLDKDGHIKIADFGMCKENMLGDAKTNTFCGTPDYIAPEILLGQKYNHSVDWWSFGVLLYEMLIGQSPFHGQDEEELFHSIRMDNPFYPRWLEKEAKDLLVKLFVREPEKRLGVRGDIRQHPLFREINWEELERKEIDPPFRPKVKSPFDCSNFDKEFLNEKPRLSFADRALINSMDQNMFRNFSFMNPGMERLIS

Compound | IC50
Cc1c(I)sc2ncc(C#N)c(Nc3ccc4[nH]ccc4c3)c12 [Compound 317, 4-(1H-Indol-5-ylamino)-2-iodo-3-methylthieno[2,3-b]pyridine-5-carbonitrile] | 718 nM
Cc1c(Nc2c(C#N)cnc3sc(I)c(C)c23)ccc2[nH]ccc12 [Compound 318, 2-Iodo-3-methyl-4-[(4-methyl-1H-indol-5-yl)amino]thieno[2,3-b]pyridine-5-carbonitrile] | 80 nM
Cc1ccc2[nH]ccc2c1Nc1c(C#N)cnc2sc(-c3ccccc3)cc12 [Compound 319, 4-[(5-methyl-1H-indol-4-yl)amino]-2-phenylthieno[2,3-b]pyridine-5-carbonitrilee] | 1110 nM
CN(C)Cc1cccc(-c2cc3c(Nc4cnc5[nH]ccc5c4)c(C#N)cnc3s2)c1 [Compound 320, 2-{3-[(dimethylamino)methyl]phenyl}-4-(1H-pyrrolo[2,3-b]pyridin-5-ylamino)thieno[2,3-b]pyridine-5-carbonitrile] | 690 nM
CC(C)c1c(I)sc2ncc(C#N)c(Nc3ccc4[nH]ccc4c3)c12 [Compound 321, 4-(1H-indol-5-ylamino)-2-iodo-3-isopropylthieno[2,3-b]pyridine-5-carbonitrile] | 345 nM
N#Cc1cnc2sc(-c3ccccc3)cc2c1Nc1cnc2[nH]ccc2c1 [Compound 322, 2-phenyl-4-(1H-pyrrolo[2,3-b]pyridin-5-ylamino)thieno[2,3-b]pyridine-5-carbonitrile] | 4670 nM
Cc1cc2[nH]ccc2cc1Nc1c(C#N)cnc2sc(-c3ccccc3)cc12 [Compound 323, 4-[(6-methyl-1H-indol-5-yl)amino]-2-phenylthieno[2,3-b]pyridine-5-carbonitrile] | 87 nM
Cc1c(Nc2c(C#N)cnc3sc(I)c(C(C)C)c23)ccc2[nH]ccc12 [Compound 324, 2-iodo-3-isopropyl-4-[(4-methyl-1H-indol-5-yl)amino]thieno[2,3-b]pyridine-5-carbonitrile] | 65 nM
Cc1c(Nc2c(C#N)cnc3scc(Br)c23)ccc2[nH]ccc12 [Compound 325, 3-bromo-4-[(4-methyl-1H-indol-5-yl)amino]thieno[2,3-b]pyridine-5-carbonitrile] | 15 nM
CN(C)Cc1cccc(-c2cc3c(Nc4cccnc4)c(C#N)cnc3s2)c1 [Compound 326, 2-{3-[(dimethylamino)methyl]phenyl}-4-(pyridin-3-ylamino)thieno[2,3-b]pyridine-5-carbonitrile] | 31000 nM
CN(C)Cc1cccc(-c2cc3c(Nc4ccncc4)c(C#N)cnc3s2)c1 [Compound 327, 2-{3-[(dimethylamino)methyl]phenyl}-4-(pyridin-4-ylamino)thieno[2,3-b]pyridine-5-carbonitrile] | 16400 nM
N#Cc1cnc2sc(-c3ccc4ccccc4c3)cc2c1Nc1ccc2[nH]ccc2c1 [Compound 328, 4-(1H-indol-5-ylamino)-2-(2-naphthyl)thieno[2,3-b]pyridine-5-carbonitrile] | 1380 nM
Cc1c(Nc2c(C#N)cnc3sc(-c4ccc(N5CCOCC5)nc4)cc23)ccc2[nH]ccc12 [Compound 329, 4-[(4-methyl-1H-indol-5-yl)amino]-2-(6-morpholin-4-ylpyridin-3-yl)thieno[2,3-b]pyridine-5-carbonitrile] | 160 nM
Cc1c(Nc2c(C#N)cnc3sc(-c4cnc(N5CCOCC5)nc4)cc23)ccc2[nH]ccc12 [Compound 330, 4-[(4-methyl-1H-indol-5-yl)amino]-2-(2-morpholin-4-ylpyrimidin-5-yl)thieno[2,3-b]pyridine-5-carbonitrile] | 69 nM
Cc1c(Nc2c(C#N)cnc3sc(-c4cnc(N(C)C)nc4)cc23)ccc2[nH]ccc12 [Compound 331, 2-[2-(dimethylamino)pyrimidin-5-yl]-4-[(4-methyl-1H-indol-5-yl)amino]thieno[2,3-b]pyridine-5-carbonitrile] | > 25000 nM
CCOc1ccccc1-c1cc2c(Nc3ccc4[nH]ccc4c3C)c(C#N)cnc2s1 [Compound 332, 2-(2-ethoxyphenyl)-4-[(4-methyl-1H-indol-5-yl)amino]thieno[2,3-b]pyridine-5-carbonitrile] | 437 nM
